In ChEMBL document CHEMBL1127287, “Synthesis and FKBP binding of small molecule mimics of the tricarbonyl region of FK506” (Bioorg Med Chem Lett, 1994):
pIC50: −log10 of the molar value.

Tests used:
[1] = target: T1, Peptidyl-prolyl cis-trans isomerase FKBP1A (Homo sapiens, UniProt P62942); assay: Percent inhibition towards recombinant FK506 binding protein 12 to determine the FKBP binding property at a concentration of 100 uM
[2] = target: T1, Peptidyl-prolyl cis-trans isomerase FKBP1A; assay: Binding affinity towards recombinant FK506 binding protein 12 to determine the FKBP binding property of the compound

T1 sequence (P62942 whole entry): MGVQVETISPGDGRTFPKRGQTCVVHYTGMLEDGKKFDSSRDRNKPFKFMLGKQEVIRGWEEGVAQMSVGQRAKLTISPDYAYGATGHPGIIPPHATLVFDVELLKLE

Row | inhibition [1] | pIC50 [2] | SMILES
1 | 52% | – | COc1ccc(CCCCOC(=O)[C@@H]2CCCCN2C(=O)Cc2cc(OC)c(OC)c(OC)c2)cc1
2 | 90% | 4.80 | COc1ccc(CCCCOC(=O)[C@@H]2CCCCN2C(=O)C(=O)c2cc(OC)c(OC)c(OC)c2)cc1
3 | 47% | – | COc1ccc(CCCCOC(=O)[C@@H]2CCCCN2C(=O)C(C)c2cc(OC)c(OC)c(OC)c2)cc1 (stereo not given in full)
4 | 39% | – | C=C(C(=O)N1CCCC[C@H]1C(=O)OCCCCc1ccc(OC)cc1)c1cc(OC)c(OC)c(OC)c1
